{
  "source": "paper PMC4757881",
  "about": "(Scientific Reports, 2016)",
  "key": {"CB2 receptor (hCB2)": {"target": "T1, CB2 receptor (hCB2) (Homo sapiens, UniProt P34972)", "T1 construct": "gene CNR2", "T1 sequence (P34972 whole entry)": "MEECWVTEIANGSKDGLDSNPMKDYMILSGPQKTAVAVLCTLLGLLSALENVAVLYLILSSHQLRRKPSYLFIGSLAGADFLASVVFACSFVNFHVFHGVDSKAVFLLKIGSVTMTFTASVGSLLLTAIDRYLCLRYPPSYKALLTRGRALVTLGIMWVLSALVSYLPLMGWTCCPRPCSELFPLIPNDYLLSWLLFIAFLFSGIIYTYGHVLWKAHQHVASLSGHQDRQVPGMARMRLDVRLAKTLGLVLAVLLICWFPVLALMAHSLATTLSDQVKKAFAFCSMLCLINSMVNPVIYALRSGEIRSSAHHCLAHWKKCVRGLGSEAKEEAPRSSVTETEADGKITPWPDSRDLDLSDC", "test": "radioligand competition ([3H]CP55940) on HEK293 membranes expressing hCB2; agonist in CRE-Luc assay", "assay_type": "binding"}, "PPARγ": {"target": "T2, PPARγ (Homo sapiens, UniProt P37231)", "T2 construct": "gene PPARG", "T2 sequence (P37231 1-505)": "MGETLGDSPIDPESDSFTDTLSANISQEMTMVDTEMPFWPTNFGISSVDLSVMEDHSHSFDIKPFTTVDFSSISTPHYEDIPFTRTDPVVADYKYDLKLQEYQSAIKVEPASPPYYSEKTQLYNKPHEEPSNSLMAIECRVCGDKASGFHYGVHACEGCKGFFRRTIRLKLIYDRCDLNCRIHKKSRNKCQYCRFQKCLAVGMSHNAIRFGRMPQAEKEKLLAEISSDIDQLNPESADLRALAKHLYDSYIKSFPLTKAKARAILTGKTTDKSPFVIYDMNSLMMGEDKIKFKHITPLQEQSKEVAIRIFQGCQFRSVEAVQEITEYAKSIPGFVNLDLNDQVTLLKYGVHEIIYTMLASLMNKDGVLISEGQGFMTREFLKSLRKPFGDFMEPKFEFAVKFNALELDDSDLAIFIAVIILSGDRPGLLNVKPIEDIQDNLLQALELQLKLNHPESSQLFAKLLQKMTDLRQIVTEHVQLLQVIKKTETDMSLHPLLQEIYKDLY", "test": "fluorescence polarization competition (PolarScreen PPARγ Competitor Assay); GAL4-PPARγ transactivation", "assay_type": "binding"}},
  "data": [
    {"smiles": "C=C(C)[C@@H]1CCC(C)=C[C@H]1C1=C(O)C(=O)C(CCCCC)=C(NCc2ccccc2)C1=O", "note": "[VCE-004.8]", "values": [
      {"measurement": "Ki", "setting": "CB2 receptor (hCB2)", "result": "170 ± 50", "unit": "nM"},
      {"measurement": "IC50", "setting": "PPARγ", "result": 1700, "unit": "nM"}
    ]}
  ]
}
